# Reference: patent US20090105172A1, “Stabilized Aptamers to PSMA and Their Use as Prostate Cancer Therapeutics” (priority 2005, published 2009)
# Entries after “also recorded” stand apart in the source; their conditions may differ. {C6-FAM} = fluorescein label attached via 5'-amine; [invdT] = inverted (3'-3') thymidine; m = 2'-O-methyl; r = 2'-OH (RNA); f = 2'-fluoro
# Key:
# LNCaP cells = assay: Cell proliferation assay (BrdU ELISA), targeted killing; assay type: cell-based; conditions: for effect on LNCaP cell viability: entire concentration range
# Method: Effects on LNCaP cell viability were assessed in a cell proliferation assay based on chemiluminescent detection of BrdU described below (Cell Proliferation ELISA, BrdU (Roche, Indianapolis, Ind.). PC-3 cells were used as a control cell line.
# Media from LNCaP (PSMA+) or PC3 (PSMA−) cells growing in 15 cm plates was aspirated off then cells were washed with 10 mL 1×PBS. Cells were trypsinized for 30 sec at 37° C. Following trypsinization, 8 mL 10% FBS media was used to quench trypsin. […] Following spin the media was aspirated off and the cell pellet was re-suspended with 10 mL complete media. The cell density was adjusted to 200,000 cells/mL. 50 μl of cells/well was added to collagen coated black 96-well plates (10,000 cells/well). […] Following overnight incubation 25 μl of media, aptamer or antibody was added to each well with the final volume in the well being 100 μl and incubated at 37° C. in 5% CO2 for designated time length. […] After 2 days 20 μl BrdU labeling reagent (100×) is mixed with 2 mL of complete media. […] After incubation, the media was removed, and the assay was completed following the manufacturer's protocol: 200 μl/well FixDenat solution was added to each well and incubated for 30 min at RT. Following removal of FixDenat solution 100 μl anti-BrdU POD Fab fragment solution (Luminol/4-iodophenol) was added to each well and incubated for 90 min at RT. After incubation anti-BrdU POD solution was removed and plates were washed with 200 μl/well of washing solution three times with 5 min RT incubations. 100 μl of substrate solution was added to each well and cells were incubated for 3 min at RT in the dark. The plates were read using a luminescence program with a 1 sec count on a Packard TopCount Microplate Scintillation and Luminescence Counter.
# LNCaP cells (PSMA+) = assay: LNCaP FACS binding assay with fluorescein-labeled aptamers; assay type: cell-based; conditions: FACS analysis; scrambled A9 negative control
# Method: To prepare aptamers for the FACS assay, PSMA aptamers were serially diluted (0-1 uM) in FACS buffer (1×DPBS w/Ca^++/Mg^++ (Gibco, Carlsbad, Calif.) supplemented with 10 mg/mL salmon sperm DNA & 0.2% Na Azide), in a V-bottom 96 well plate, at the concentrations to be tested. LNCaP and PC-3 cells (ATCC, Manassas, Va.) were harvested with trypsin, and 200,000 cells/well were counted, washed once with 1×DPBS (with Ca^++ and Mg^+) and resuspended in 200 μl of FACS Buffer. The 200 μl of cells in FACS buffer were added to individual wells of a new 96 well plate, pelleted by centrifugation (1300 rpm for 5 minutes), and resuspended in 100 μl of the appropriate concentration of diluted aptamer. FACS buffer, a-PSMA antibody (3C6) (Northwest Biotherapeutics, Bothell, Wash., Cat #: 60-5002) and an irrelevant fluorescein isothiocyanate (“FITC”) mouse IgG1 isotype control antibody (BD Pharmingen, San Diego, Calif., Cat#: 554679) were used as controls. The wells of aptamer/cell mixture were incubated at room temperature for 20-30 minutes.
# After incubation, 180 μl of FACS buffer (plus 10 mg/mL ssDNA, and 0.2% Na Azide) was added to each well to quench the reaction and cells were pelleted by centrifugation.
# Anti-fluorescein/Oregon Green®, rabbit IgG fraction, Alexa Fluor® 488 conjugate (Molecular Probes, Eugene, Oreg., Cat#: A11090) was diluted 1:100 in FACS buffer (100 μl/well) as the secondary antibody for the aptamer-FITC conjugates and FITC-mouse IgG isotype control. FITC Rat anti-mouse IgG1 (A85-1) (BD Pharmingen, San Diego, Calif., Cat#: 553443) was diluted in 1:100 in FACS Buffer as the secondary for the α-PSMA antibody. After centrifugation, the cell pellets were resuspended in 100 μl of the appropriate diluted secondary antibody, and incubated 10 minutes at room temperature. After incubation, 180 μl of FACS buffer was added to each well to quench the reaction, and cells were pelleted by centrifugation.
# A tertiary antibody which recognizes the Alexa Fluor® 488 goat anti-rabbit IgG was prepared to further amplify the Alexa Fluor signal. Alexa Fluor® 488 goat anti-rabbit IgG (H+ L) (Molecular Probes, Eugene, Oreg., Cat#: A11034) was diluted 1:100 in FACS buffer, and the pelleted cells were resupsended in 100 μl of the tertiary antibody and incubated for 10 minutes at room temperature. […]
# Cell samples were analyzed on a FACS Scan machine (Becton Dickinson, San Jose, Calif.) under the following parameters: FSC/SSC, FL-1/FSC, FL-3/FSC. The unstained and/or isotype controls were used to establish gating parameters, and the data was analyzed using Cell Quest Pro software version 5.1.1 (Becton Dickinson Immunocytometry Systems, San Jose, Calif.).
# ECD PSMA = molecular target: T1, ECD PSMA (Homo sapiens, UniProt Q04609); assay: Dot blot binding assay (nitrocellulose filter) with purified ECD PSMA; conditions: for Max % bound (highest % of minimer bound to target protein): dot blot
# T1 construct: vector-derived N-terminal linker […]; made in house; host or cells: 293 Freestyle cells, pSecTag2B vector
# From the text: Protein Purification of ECD of PSMA: An I.M.A.G.E. clone (5202715) encoding full length recombinant human PSMA was purchased from Open Biosystems (Clone EHS1001-18533, Huntsville, Ala.). PCR was used to amplify the extracellular portion of the full length clone. An oligo with an N-terminal histidine tag was designed to engineer a construct which lacks the transmembrane domain residues 1-44. The his-tagged extracellular domain (ECD) was subcloned into the pSecTag2B expression vector (Invitrogen, Carlsbad, Calif.). The ECD of PSMA was purified in house from transfected 293 Freestyle cells (ATCC, Manassas, Va.). The amino acid sequence of the expressed protein comprising an N-terminal linker sequence of […] followed by eight Histidines is listed below: […] VSDr[…]a[…]r[…]rYV […] (SEQ ID NO 5)
# Dot Blot Binding Analysis. Dot blot binding assays were performed throughout the selections to monitor the protein binding affinity of the pools. For initial pool screening, trace ^32P-labeled pool RNA was combined with PSMA and incubated at room temperature for 30 min in 1×SHMCK buffer pH 7.4 (20 mM Hepes pH 7.4, 120 mM NaCl, 5 mM KCl, 1 mM MgCl2, 1 mM CaCl2) plus 0.1 mg/mL tRNA in a final volume of 30 μl. The mixture was applied to a dot blot apparatus (Schleicher and Schuell Minifold-1 Dot Blot, Acrylic, Keene, N.H.), assembled (from top to bottom) with nitrocellulose, nylon, and gel blot membranes. RNA that is bound to protein is captured on the nitrocellulose filter; whereas the non-protein bound RNA is captured on the nylon filter. […] The Round 9 pool was cloned and screened in a single point dot blot assay using 100 nM PSMA (0 nM PSMA was used as a negative control). Clone transcripts were 5′ end labeled with ^32-P ATP. Likely binders were than assayed for KD determination by the blot assay conditions described directly above, but without tRNA, using an 8 point PSMA titration with a constant RNA concentration. […] Both of the clones screened were unique sequences in the Round 9 selection pool.
# In order to identify the core structural elements required for ARC955 binding to PSMA, the 3′-boundaries of the clone was determined through alkaline hydrolysis. The parent RNA transcript was labeled at the 5′-end with γ-^32P ATP and T4 polynucleotide kinase. Radiolabeled ligands were subjected to partial alkaline hydrolysis and then selectively bound in solution to ECD PSMA (purified in house) at 100 nM before being passed through nitrocellulose filters (Centrex MF 1.5 mL, 0.45 μm, Schleicher & Schuell, Keene N.H.). Retained oligonucleotides were resolved on 8% denaturing polyacrylamide gels. The smallest oligonucleotide bound to PSMA defined the 3′-boundary. On the basis of the boundary experiments as well as visual inspection of predicted folds, truncated constructs were synthesized. Clones were then assayed by dot blot as previously described to determine their KD. […] The binding curve for ARC1091 in the dot blot assay is depicted in FIG. 5A, and the predicted secondary structure of ARC1091 is depicted in FIG. 5B. The KD and maximum % bound for the 3 minimized constructs with the overall highest PSMA affinity, as determined by a dot blot binding assay, are listed in Table 4. For the minimized rGmH aptamers described in Table 5 below, the guanosine triphosphates are 2′-OH and the adenosines triphosphates, cytidine triphosphates and uridine triphosphates are 2′-OMe. Unless noted otherwise, the individual sequences are represented in the 5′ to 3′ orientation. In some embodiments, the invention comprises aptamers with a nucleic acid sequence as described in Table 4 below. In some embodiments, the nucleic acid sequence of an aptamer described in Table 4 below additionally comprises a 3′ cap (e.g., an inverted dT cap), and/or 5′ amine (NH2) modification to facilitate chemical coupling, and/or conjugation to a high molecular weight, non-immunogenic compound (e.g., PEG). […]
# [1] = Round 9 PSMA rGmH clones, 8 point PSMA titration, without tRNA
# T1 sequence (Q04609 with tags, fused parts or gaps): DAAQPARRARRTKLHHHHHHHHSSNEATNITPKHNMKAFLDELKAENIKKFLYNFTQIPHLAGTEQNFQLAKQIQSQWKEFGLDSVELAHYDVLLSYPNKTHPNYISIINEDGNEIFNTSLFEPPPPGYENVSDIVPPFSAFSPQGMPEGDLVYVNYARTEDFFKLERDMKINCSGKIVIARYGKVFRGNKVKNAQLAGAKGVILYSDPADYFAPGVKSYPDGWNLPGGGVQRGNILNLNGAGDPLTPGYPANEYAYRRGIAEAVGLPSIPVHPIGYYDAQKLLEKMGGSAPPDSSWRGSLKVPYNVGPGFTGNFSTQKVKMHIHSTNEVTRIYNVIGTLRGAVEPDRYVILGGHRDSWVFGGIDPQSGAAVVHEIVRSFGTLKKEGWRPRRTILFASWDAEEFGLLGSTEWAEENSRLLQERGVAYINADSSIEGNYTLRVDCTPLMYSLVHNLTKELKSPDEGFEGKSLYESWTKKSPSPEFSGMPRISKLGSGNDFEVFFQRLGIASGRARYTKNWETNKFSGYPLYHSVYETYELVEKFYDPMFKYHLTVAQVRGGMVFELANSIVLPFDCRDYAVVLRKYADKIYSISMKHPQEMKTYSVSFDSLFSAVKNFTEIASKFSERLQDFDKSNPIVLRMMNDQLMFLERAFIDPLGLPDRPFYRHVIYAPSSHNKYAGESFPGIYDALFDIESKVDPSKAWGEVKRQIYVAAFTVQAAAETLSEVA
molecule,measurement,setting,value
"O=c1c(-c2ccc(O)cc2)coc2cc(O)cc(O)c12 [Genistein, reference compound]",effect in cytotoxicity assays at 25 μM,"LNCaP cells; positive control, 25 μM",partial inhibition
same,effect in cytotoxicity assays at 150 μM,"LNCaP cells; positive control, 150 μM",complete cell killing
"C6 FAM-GGAGGACCGAAAAAGACCUGACUUCUAUACUAAGUCUACGUUCCUCC-3T (2'-fluoro at CU, RNA at AG, [invdT] at 3' end, 5' {C6-FAM}, backbone not given here) [ARC710, fluorescently labeled A9 minimer]",competition with fluorescently labeled anti-PSMA antibody for binding to the surface of LNCaP cells,LNCaP cells (PSMA+),effectively competes
"CUACUACACAUGGGUCGGGUGAGUGGCAAAGGAAUAGUAG (2'-O-methyl at ACU, RNA at G, backbone not given here) [ARC725, non-functional rGmH minimer, irrelevant control]",PSMA binding,ECD PSMA,no intrinsic PSMA binding; also recorded: not to exhibit PSMA binding
same,KD (nM),ECD PSMA; rGmH minimers,no binding
same,Max % bound (highest % of minimer bound to target protein),ECD PSMA; rGmH minimers,no binding
"CUACUGGGUGGCUGGGAGGGGAAGAGGGAGUAG (2'-O-methyl at ACU, RNA at G, backbone not given here) [ARC1089, rGmH minimer]",Kd,ECD PSMA; rGmH minimers,9.3 nM
same,Max % bound (highest % of minimer bound to target protein),ECD PSMA; rGmH minimers,22%
"GGGUGGCUGGGAGGGGAAGAGGG (2'-O-methyl at ACU, RNA at G, backbone not given here) [ARC1088, rGmH minimer]",Kd,ECD PSMA; rGmH minimers,2.1 nM
same,Max % bound (highest % of minimer bound to target protein),ECD PSMA; rGmH minimers,33%
UAAUACGACUCACUAUAGGGAGAGGAGAGAACGUUCUACUAUGGGUGGCUGGGAGGGGAAGAGGGAGUAGGUCGAUCGAUCGAUCAUCGAUG [ARC955],Kd,ECD PSMA; [1],9 nM
same,effect on LNCaP cell viability,LNCaP cells,no intrinsic effect on cell viability
UAAUACGACUCACUAUAGGGGAGAGGAGAGAACGUUCUACACAUGGGUCGGGUGAGUGGCAAAGGAAUAGGUCGAUCGAUCGAUCAUCGAUG [ARC956],Kd,ECD PSMA; [1],16 nM
"c6 fam-mCmGmGmAfCfCmGAAAAmAmGmAmCfCfUGAfCfUfUfCfUAfUAfCfUAAmGmUmCmUAfCmGfUmUmCmCmG-3T (CGGACCGAAAAAGACCUGACUUCUAUACUAAGUCUACGUUCCG; sugars from the 5' end mmmmffmrrrrmmmmffrrfffffrfrffrrmmmmrfmfmmmm, [invdT] at 3' end, 5' {C6-FAM}, backbone not given here) [ARC711, fluorescently labeled A9 minimer]",competition with fluorescently labeled anti-PSMA antibody for binding to the surface of LNCaP cells,LNCaP cells (PSMA+),effectively competes
"mAGmAGGmAGmAGmAmAmCGmUmUmCmUmAmCmUmAmUGGGmUGGmCmUGGGmAGGGG (AGAGGAGAGAACGUUCUACUAUGGGUGGCUGGGAGGGG; 2'-O-methyl at ACU, RNA at G, backbone not given here) [ARC1091, minimized ARC955 (G2) aptamer]",PSMA binding,ECD PSMA,maintains the full binding capacity
same,Kd,ECD PSMA; rGmH minimers,3.1 nM
same,Max % bound (highest % of minimer bound to target protein),ECD PSMA; rGmH minimers,52%
"mCmGmGmAfCfCmGAAAAmAmGmAmCfCfUGAfCfUfUfCfUAfUAfCfUAAmGmUmCmUAfCmGfUmUmCmCmG-3T (CGGACCGAAAAAGACCUGACUUCUAUACUAAGUCUACGUUCCG; sugars from the 5' end mmmmffmrrrrmmmmffrrfffffrfrffrrmmmmrfmfmmmm, [invdT] at 3' end, backbone not given here) [ARC942, minimized A9 aptamer]",effect on LNCaP cell viability,LNCaP cells,no intrinsic effect on cell viability
